Results published in ChEMBL document CHEMBL5036330, “Discovery of 8,9-seco-ent-Kaurane Diterpenoids as Potential Leads for the Treatment of Triple-Negative Breast Cancer” (J Med Chem, 2021).
Active and inactive are the calls of the source. No cut-off for these calls is given here.

Columns and labels:
[1] = tested on: MDA-MB-468; assay: Anticancer activity in human MDA-MB-468 cells xenografted mouse model assessed as tumor growth inhibition at 5 mg/kg, ip treated for 33 days relative to control; format: functional, organism-based; conditions: time 33.0 day
[2] = tested on: MDA-MB-231; assay: Antitumor activity against human MDA-MB-231 cells xenografted in NOD/SCID mouse assessed as decrease in Ki67 expression in tumor tissue at 5 to 10 mg/kg, ip treated for 33 days by immunohistochemical analysis; format: functional, organism-based; conditions: dose 5-10 mg/kg, time 33.0 day
[3] = tested on: MDA-MB-468; assay: Induction of cell cycle arrest in human MDA-MB-468 cells assessed as accumulation of cells at G2 phase at 2 uM measured after 24 hrs by flow cytometry (reference value: 26.5%); format: functional
[4] = tested on: MDA-MB-231; assay: Induction of autophagy in human MDA-MB-231 cells assessed as increase in LC3-II expression at 1 to 5 uM incubated for 24 hrs by Western blot analysis; format: functional, cell-based; conditions: dose 1-5 µM
[5] = tested on: MDA-MB-231; assay: Induction of apoptosis in human MDA-MB-231 cells assessed as late apoptotic cells at 5 uM measured after 24 hrs by Annexin V/Propidium iodide stain based Flow cytometry (reference value: 2.78%); format: functional
[6] = tested on: L02; assay: Cytotoxicity against human L02 cells assessed as reduction in cell viability incubated for 96 hrs by MTT method; format: cell-based; conditions: L02, 96 h
[7] = tested on: MDA-MB-231; assay: Cytotoxicity against human MDA-MB-231 cells assessed as reduction in cell viability incubated for 96 hrs by MTT method; format: functional, cell-based; conditions: MDA-MB-231, 96 h
[8] = tested on: MDA-MB-231; assay: Induction of apoptosis in human MDA-MB-231 cells assessed as early apoptotic cells at 5 uM measured after 24 hrs by Annexin V/Propidium iodide stain based Flow cytometry (reference value: 3.34%); format: functional
[9] = tested on: MDA-MB-231; assay: Induction of apoptosis in human MDA-MB-231 cells assessed as decrease in Bcl2/Bax ratio at 1 to 5 uM measured after 24 hrs by Western blot analysis; format: functional, cell-based; conditions: dose 1-5 µM
[10] = Toxicity in NOD/SCID mouse assessed as cytotoxicity in lung at 10 mg/kg, ip treated for 33 days by H&E staining analysis; format: organism-based; conditions: in vivo, 792 h, time 33 day
[11] = tested on: MDA-MB-468; assay: Induction of apoptosis in human MDA-MB-468 cells assessed as late apoptotic cells at 1 uM measured after 24 hrs by Annexin V/Propidium iodide stain based Flow cytometry (reference value: 3.98%); format: functional
[12] = tested on: MDA-MB-468; assay: Induction of cell cycle arrest in human MDA-MB-468 cells assessed as accumulation of cells at G1 phase at 2 uM measured after 24 hrs by flow cytometry (reference value: 26.6%); format: functional
[13] = tested on: MDA-MB-468; assay: Induction of apoptosis in human MDA-MB-468 cells assessed as increase in cleaved PARP at 1 to 5 uM measured after 24 hrs by Western blot analysis; format: functional, cell-based; conditions: dose 1-5 µM
[14] = tested on: MDA-MB-231; assay: Effect on Akt expression in human MDA-MB-231 cells measured at 1 to 5 uM after 24 hrs by Western blot analysis; format: functional, cell-based; conditions: dose 1-5 µM
[15] = tested on: MDA-MB-468; assay: Antitumor activity against human MDA-MB-468 cells xenografted in NOD/SCID mouse assessed as increase in LC3B expression in tumor tissue at 5 to 10 mg/kg, ip treated for 33 days by immunohistochemical analysis; format: functional, organism-based; conditions: dose 5-10 mg/kg, time 33.0 day
[16] = tested on: MDA-MB-468; assay: Induction of cell cycle arrest in human MDA-MB-468 cells assessed as accumulation of cells at G1 phase at 1 uM measured after 24 hrs by flow cytometry (reference value: 26.6%); format: functional
[17] = tested on: MDA-MB-231; assay: Induction of apoptosis in human MDA-MB-231 cells assessed as early apoptotic cells at 2 uM measured after 24 hrs by Annexin V/Propidium iodide stain based Flow cytometry (reference value: 3.34%); format: functional
[18] = tested on: MDA-MB-231; assay: Induction of mitochondrial depolarization in human MDA-MB-231 cells assessed as monomers at 1 uM in dark by JC10 staining based fluorescence microscopy (reference value: 5.6%); format: functional
[19] = tested on: MDA-MB-468; assay: Induction of mitochondrial depolarization in human MDA-MB-468 cells assessed as monomers at 1 uM in dark by JC10 staining based fluorescence microscopy (reference value: 8.4%); format: functional
[20] = tested on: MDA-MB-468; assay: Inhibition of Akt phosphorylation in human MDA-MB-468 cells measured after 24 hrs by Western blot analysis; format: cell-based; conditions: dose 1-5 µM
[21] = tested on: MDA-MB-231; assay: Induction of cell cycle arrest in human MDA-MB-231 cells assessed as accumulation of cells at G1 phase at 5 uM measured after 24 hrs by flow cytometry (reference value: 47.7%); format: functional
[22] = tested on: MDA-MB-468; assay: Induction of mitochondrial depolarization in human MDA-MB-468 cells assessed as aggregates at 5 uM in dark by JC10 staining based fluorescence microscopy (reference value: 91.6%); format: functional
[23] = tested on: MDA-MB-231; assay: Induction of apoptosis in human MDA-MB-231 cells assessed as early apoptotic cells at 1 uM measured after 24 hrs by Annexin V/Propidium iodide stain based Flow cytometry (reference value: 3.34%); format: functional
[24] = tested on: MDA-MB-468; assay: Anticancer activity in human MDA-MB-468 cells xenografted mouse model assessed as reduction in tumor weight at 10 mg/kg, ip treated for 33 days; format: functional; conditions: MDA-MB-468, ip, 792 h, time 33 day
[25] = tested on: MDA-MB-468; assay: Antitumor activity against human MDA-MB-468 cells xenografted in NOD/SCID mouse assessed as decrease in CD31 expression in tumor tissue at 5 to 10 mg/kg, ip treated for 33 days by immunohistochemical analysis; format: functional, organism-based; conditions: dose 5-10 mg/kg, time 33.0 day
[26] = tested on: MDA-MB-231; assay: Induction of apoptosis in human MDA-MB-231 cells assessed as increase in cleaved caspase 3 at 1 to 5 uM measured after 24 hrs by Western blot analysis; format: functional, cell-based; conditions: dose 1-5 µM
[27] = tested on: MDA-MB-231; assay: Induction of cell cycle arrest in human MDA-MB-231 cells assessed as accumulation of cells at G2 phase at 1 uM measured after 24 hrs by flow cytometry (reference value: 20.2%); format: functional
[28] = tested on: MDA-MB-468; assay: Induction of cell cycle arrest in human MDA-MB-468 cells assessed as accumulation of cells at S phase at 5 uM measured after 24 hrs by flow cytometry (reference value: 46.9%); format: functional
[29] = tested on: MDA-MB-468; assay: Antitumor activity against human MDA-MB-468 cells xenografted in NOD/SCID mouse assessed as increase in TUNEL expression in tumor tissue at 5 to 10 mg/kg, ip treated for 33 days by immunohistochemical analysis; format: functional, organism-based; conditions: dose 5-10 mg/kg, time 33.0 day
[30] = tested on: MDA-MB-468; assay: Induction of cell cycle arrest in human MDA-MB-468 cells assessed as accumulation of cells at G2 phase at 5 uM measured after 24 hrs by flow cytometry (reference value: 26.5%); format: functional
[31] = tested on: MDA-MB-468; assay: Induction of apoptosis in human MDA-MB-468 cells assessed as early apoptotic cells at 1 uM measured after 24 hrs by Annexin V/Propidium iodide stain based Flow cytometry (reference value: 7.98%); format: functional
[32] = tested on: MDA-MB-231; assay: Inhibition of Akt phosphorylation in human MDA-MB-231 cells measured after 24 hrs by Western blot analysis; format: cell-based
[33] = tested on: MDA-MB-468; assay: Induction of apoptosis in human MDA-MB-468 cells assessed as early apoptotic cells at 5 uM measured after 24 hrs by Annexin V/Propidium iodide stain based Flow cytometry (reference value: 7.98%); format: functional
[34] = tested on: MDA-MB-231; assay: Effect on PI3K expression in human MDA-MB-231 cells measured at 1 to 5 uM after 24 hrs by Western blot analysis; format: functional, cell-based; conditions: dose 1-5 µM

C=C1C(=O)C2=C[C@H]1CCC(=O)[C@]1(C)[C@H](O)CCC(C)(C)[C@H]1C[C@H]2O
Activity [1]: Active
Activity [2]: Active
Activity [3]: 58.1%
Activity [4]: Active
Activity [5]: 28%
IC50 [6]: > 5 µM
IC50 [7]: 78.3 nM
Activity [8]: 18%
Activity [9]: Active
Activity [10]: Non-Toxic
Activity [11]: 10.1%
Activity [12]: 14.3%
Activity [13]: Active
Activity [14]: inactive
Activity [15]: Active
Activity [16]: 14.3%
Activity [17]: 8.05%
Activity [18]: 18.9%
Activity [19]: 38.4%
inhibition [20]: Active
Activity [21]: 27.5%
Activity [22]: 13.3%
Activity [23]: 6.59%
inhibition in vivo at 10 mg/kg [24]: 58%
Activity [25]: Active
Activity [26]: Active
Activity [27]: 29.2%
Activity [28]: 24.3%
Activity [29]: Active
Activity [30]: 59.6%
Activity [31]: 29.7%
inhibition [32]: Active
Activity [33]: 21%
Activity [34]: inactive
